According to patent US12594335B2, “Platinum-based drug-/photosensitizer-loaded protein nanoparticle, and preparation method therefor and application thereof” (SOOCHOW UNIVERSITY, priority 2020, dated 2026):

Tests used:
[1] = Serum biochemical indexes of liver and kidney functions; type: in vivo, Balb/c mice; details: 5 mg/kg Pt i.v. every other day, 3 times; serum on day 7, 14, 21, 28
Excerpt: Inspection of biochemical indexes after action of nanoparticles: In order to determine the toxicity of drugs during metabolism in vivo, biochemical indexes of liver and kidney functions were investigated. […]

[2] = In-vitro chemical stability (UV absorbance of Ce6 within 72 h); type: physicochemical; details: water, phosphate buffer pH 5.5, pH 7.4, culture medium with 10% fetal bovine serum
Experimental: In-vitro stability of nanoparticles: (1) Chemical stability of nanoparticles: taking 0.1 mL of a nanoparticle solution with the concentration of Ce6 at 20 μmol/L and 0.1 mL of a free Ce6 solution with a concentration of 20 μmol/L, respectively, and adding them respectively to 2.9 mL of pure water, a phosphate buffer with pH 5.5, a phosphate buffer with pH 7.4, and a RPMI 1640 culture medium containing 10% fetal bovine serum; and storing at room temperature and away from light, with 3 copies for each environment. A UV-vis spectrophotometer was used to measure the absorbance change of Ce6 within 72 h.

[3] = Photostability under 660 nm laser irradiation; type: physicochemical
Experimental: (2) Photostability of nanoparticles: taking 0.1 mL of a nanoparticle solution with the concentration of Ce6 at 20 μmol/L and 0.1 mL of a free Ce6 solution with a concentration of 20 μmol/L, respectively, and adding them respectively to 2.9 mL of pure water, a phosphate buffer with pH 5.5, and a phosphate buffer with pH 7.4; and using a 660 nm laser with the power of 0.15 W/cm^2 to irradiate the solutions once every 30 s, and immediately measuring the ultraviolet absorption value with a UV-vis spectrophotometer until full 5 min of irradiation.

## N.N.[Cl][Pt][Cl] [free CDDP, cis-dichlorodiammine platinum (II)]
[1]
  kidney indexes Urea and Crea: increased rapidly
  liver indexes (ALT, AST, ALP): changed greatly

## chlorin e6 [free Ce6]
[2]
  decrease of UV absorption with time: 20%-40%
[3]; 0.15 W/cm^2, up to 5 min, deionized water, pH 5.5 and pH 7.4 buffers
  photostability: photobleached quickly
[3]; acidic environment, 0.15 W/cm^2
  time to completed photobleaching: ≤ 120 s
